The values that follow come from ChEMBL document CHEMBL1139259, “Molecular modeling, synthesis, and activity studies of novel biaryl and fused-ring BACE1 inhibitors” (Bioorg Med Chem Lett, 2009).

One experiment deals with Beta-secretase 1 (Homo sapiens, UniProt P56817).
The next experiment concerns the target T1, Beta-secretase 2 (Homo sapiens, UniProt Q9Y5Z0).
T1 sequence (Q9Y5Z0 whole entry): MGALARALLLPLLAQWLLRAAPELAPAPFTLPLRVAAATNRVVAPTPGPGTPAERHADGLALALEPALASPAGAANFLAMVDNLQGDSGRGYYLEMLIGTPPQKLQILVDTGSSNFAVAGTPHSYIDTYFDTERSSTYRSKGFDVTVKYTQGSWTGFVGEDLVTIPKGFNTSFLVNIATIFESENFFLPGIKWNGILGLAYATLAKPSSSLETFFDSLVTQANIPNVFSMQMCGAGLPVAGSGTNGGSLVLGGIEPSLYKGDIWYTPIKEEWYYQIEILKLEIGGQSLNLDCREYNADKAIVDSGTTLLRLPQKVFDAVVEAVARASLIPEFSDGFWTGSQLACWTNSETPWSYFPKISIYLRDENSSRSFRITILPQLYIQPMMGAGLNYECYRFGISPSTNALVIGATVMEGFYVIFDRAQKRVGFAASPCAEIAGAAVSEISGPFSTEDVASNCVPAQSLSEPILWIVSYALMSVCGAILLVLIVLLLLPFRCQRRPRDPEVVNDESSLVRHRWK
Description: Inhibition of BACE2 expressed in human 293T cells. The class given is cell-based.

Another experiment concerns N2a. The experiment in a line: Reduction of amyloid beta40 level in mouse N2A cells expressing Swedish mutant human APP695 at 10 uM after 24 hrs by ELISA. It is filed as functional. Also on record: scale not given: the % may be the effect or the level left.

Sequence of Beta-secretase 1 (P56817 whole entry): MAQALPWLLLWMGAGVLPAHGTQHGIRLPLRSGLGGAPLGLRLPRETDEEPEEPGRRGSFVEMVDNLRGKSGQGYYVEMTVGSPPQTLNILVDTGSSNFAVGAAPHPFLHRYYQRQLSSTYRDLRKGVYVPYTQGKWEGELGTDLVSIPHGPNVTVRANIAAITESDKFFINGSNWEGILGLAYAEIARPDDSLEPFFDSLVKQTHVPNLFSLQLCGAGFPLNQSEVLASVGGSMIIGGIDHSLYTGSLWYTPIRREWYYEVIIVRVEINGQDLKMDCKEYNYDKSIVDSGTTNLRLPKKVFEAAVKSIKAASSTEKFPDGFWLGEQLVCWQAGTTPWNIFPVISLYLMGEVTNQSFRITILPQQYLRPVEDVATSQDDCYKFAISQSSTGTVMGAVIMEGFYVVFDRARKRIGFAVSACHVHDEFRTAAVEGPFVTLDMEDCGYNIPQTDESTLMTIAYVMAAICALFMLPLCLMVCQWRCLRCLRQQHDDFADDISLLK
Description for Beta-secretase 1: Inhibition of BACE1 expressed in human 293T cells

A word on the IC50: it is the concentration needed to halve the response being measured. In the case of `C[C@@H](NC(=O)c1cc(C(=O)N[C@@H](Cc2ccccc2)[C@H](O)CNC2CC2)cc(N2CCCCS2(=O)=O)c1)c1ccccc1`, the IC50 turned out to be 158 nM against Beta-secretase 1 and 251 nM against Beta-secretase 2.
The corresponding values for `C[C@@H](NC(=O)c1cc(C(=O)N[C@@H](Cc2ccccc2)[C@H](O)CNC2CC2)cc2c1CCCO2)c1ccc(F)cc1` are 740 nM and 2090 nM.
For `C[C@@H](NC(=O)c1cc(C(=O)N[C@@H](Cc2ccccc2)[C@H](O)CNC2CC2)cc(-c2ccsc2)c1)c1ccccc1`, the IC50 was 2230 nM on Beta-secretase 1 and more than 100000 nM on Beta-secretase 2.
Consider `C[C@@H](NC(=O)c1cc(C(=O)N[C@@H](Cc2ccccc2)[C@H](O)CNC2CC2)cc2c1CCCCO2)c1ccccc1`, for which, in the experiment with N2a, the Activity came out at 35%. Besides, the IC50 against Beta-secretase 1 is 56 nM; on Beta-secretase 2, more than 100000 nM.
Take `C[C@@H](NC(=O)c1cc(C(=O)N[C@@H](Cc2ccccc2)[C@H](O)CNC2CC2)cc(-c2cn(Cc3ccccc3)nn2)c1)c1ccccc1`: the IC50 was 1260 nM against Beta-secretase 1 and more than 100000 nM against Beta-secretase 2.
On the same counts, the results for `C[C@@H](NC(=O)c1cc2c(c(C(=O)N[C@@H](Cc3ccccc3)[C@H](O)CNC3CC3)c1)CCCO2)c1ccccc1` are 112 nM and more than 100000 nM.
Consider `C[C@@H](NC(=O)c1cc(O)cc(C(=O)N[C@@H](Cc2ccccc2)[C@H](O)CNC2CC2)c1)c1ccccc1`, for which the IC50 was 1580 nM against Beta-secretase 1 and more than 100000 nM at Beta-secretase 2.
The corresponding values for `C[C@@H](NC(=O)c1cc(C(=O)N[C@@H](Cc2ccccc2)[C@H](O)CNC2CC2)cc(N2CCCS2(=O)=O)c1)c1ccccc1` are 1770 nM and 141 nM.
In the case of `Cc1cc2c(C(=O)N[C@H](C)c3ccccc3)cc(C(=O)N[C@@H](Cc3ccccc3)[C@H](O)CNC3CC3)cc2o1`, the IC50 is 524 nM against Beta-secretase 1 and more than 100000 nM against Beta-secretase 2.
On the same counts, the results for `C[C@@H](NC(=O)c1cc(C#Cc2ccccc2)cc(C(=O)N[C@@H](Cc2ccccc2)[C@H](O)CNC2CC2)c1)c1ccccc1` are 1120 nM and more than 100000 nM.
The corresponding values for `Cc1cc2c(C(=O)N[C@@H](Cc3ccccc3)[C@H](O)CNC3CC3)cc(C(=O)N[C@H](C)c3ccccc3)cc2o1` are 998 nM and more than 100000 nM.
On the same counts, the results for `C[C@@H](NC(=O)c1cc(C(=O)N[C@@H](Cc2ccccc2)[C@H](O)CNC2CC2)cc2c1CCCCO2)c1ccc(F)cc1` are 262 nM and 1950 nM.
`C[C@@H](NC(=O)c1cc2c(c(C(=O)N[C@@H](Cc3ccccc3)[C@H](O)CNC3CC3)c1)CCCCO2)c1ccccc1`: the figures for the IC50 against Beta-secretase 1 and on Beta-secretase 2 were 89 nM and more than 100000 nM, respectively.
Consider `COc1cc(C(=O)N[C@@H](Cc2ccccc2)[C@H](O)CNC2CC2)cc(C(=O)N[C@H](C)c2ccccc2)c1`, for which the IC50 against Beta-secretase 1 was 2510 nM; against Beta-secretase 2, more than 100000 nM.
The corresponding values for `C[C@@H](NC(=O)c1cc(C(=O)N[C@@H](Cc2ccccc2)[C@H](O)CNC2CC2)cc(-c2ccc(Cl)cc2)c1)c1ccccc1` are 811 nM and more than 100000 nM.
The corresponding values for `C#Cc1cc(C(=O)N[C@@H](Cc2ccccc2)[C@H](O)CNC2CC2)cc(C(=O)N[C@H](C)c2ccccc2)c1` are 889 nM and more than 100000 nM.
With `C[C@@H](NC(=O)c1cc(C(=O)N[C@@H](Cc2ccccc2)[C@H](O)CNC2CC2)cc2c1CCCO2)c1ccccc1`, in the experiment with N2a, the Activity amounted to 65%. For the same compound, the IC50 against Beta-secretase 1 is 63 nM; at Beta-secretase 2 it was more than 100000 nM.
